Experimental data reported in patent US20240238259A1, “COMBINATION THERAPY FOR PULMONARY HYPERTENSION” (VIVUS LLC, priority 2015, published 2024).
Read-outs that look alike come from different tables or passages of the source.

Columns and labels:
[1] = tested on: patients with PAH; assay: Phase IIA randomized, double-blind, placebo-controlled clinical trial of tacrolimus in PAH (NCT01647945); type: in vivo, human
Procedure: Tacrolimus was selected as the agent for increasing BMPR2 signaling. A phase IIA trial to assess the safety and tolerability of different doses tacrolimus (goal blood level <2 ng/ml, 2-3 ng/ml, 3-5 ng/ml) vs Placebo was conducted (Clinical Trials Identifier: NCT01647945). The secondary endpoints were change in clinical worsening, change in 6-min walk distance, NT-pro BNP, Uric Acid, and novel echo parameters. The phase IIA trial was a single center trial with 23 patients. This study was open to male or female subjects, 18-70 years of age, with pulmonary hypertension. The Inclusion and Exclusion criteria used are below:
• 1. Age ≥18 and <70 years • 2. Diagnosis of WHO Group I Pulmonary Arterial Hypertension (PAH) (Idiopathic (I)PAH, Heritable PAH (including Hereditary Hemorrhagic Telangiectasia), Associated (A)PAH (including collagen vascular disorders, drugs+toxins exposure, congenital heart disease, and portopulmonary disease). • 3. Stable on active PAH treatment including any prostacycline or phosphodiesterase inhibitors and the endothelin antagonist Ambrisentan alone or in combination (stability defined as: <10% change in 6 MWD, no change in NYHA class, no hospitalization or addition of PAH therapy for at least 3 months). • 4. Previous Right Heart Catheterization (RHC) that documented: • a. Mean PAP ≥25 mmHg. • b. Pulmonary capillary wedge pressure <15 mmHg. • c. Pulmonary Vascular Resistance ≥3.0 Wood units or 240 dynes/see/cm5 • 5. All NYHA/WHO functional classes. • 6. Willingness of female subjects to use birth control, or be post-menopausal, or status post hysterectomy.
• 1. WHO Group II-V Pulmonary Hypertension. • 2. Current or prior experimental PAH treatments within the last 6 months (including but not limited to tyrosine kinase inhibitors, rho-kinase inhibitors, or cGMP modulators). • 3. Current active treatment with the dual endothelin receptor antagonist bosentan. • 4. Total lung Capacity (TLC)<60% predicted; if TLC b/w 60 and 70% predicted, high resolution computed tomography must be available to exclude significant interstitial lung disease. • 5. Forced expiratory volume (FEV1)/Forced Vital Capacity (FVC)<70% predicted and FEV1<60% predicted • 6. Significant left-sided heart disease (based on screening Echocardiogram): • a. Significant aortic or mitral valve disease • b. Diastolic dysfunction≥Grade II • c. Left Ventricle (LV) systolic function <45% • d. Pericardial constriction • e. Restrictive cardiomyopathy • f. Significant coronary disease with demonstrable ischemia. • 7. Chronic renal insufficiency defined as an estimated creatinine clearance <30 ml/min (by Modification of diet in renal disease (MDRD) equation). • 8. Current atrial arrhythmias not under optimal control. • 9. Uncontrolled systemic hypertension: SBP>160 mm or DBP>100 mm • 10. […]

[2] = tested on: PAH patients; details: for symptoms and exercise capacity: within 1 month of initiation, ambrisentan
[3] = tested on: BMPR2 signaling (BRE from the Id1 promoter linked to luciferase, C2C12 mouse myoblastoma reporter cells); assay: BRE-Luc reporter high throughput screen for compounds that increase BMPR2 signaling; type: cell-based; details: screen of library of >3,600 compounds
Procedure: A C2C12 mouse myoblastoma reporter cells line where the BRE (BMP Response Element) from the Id1 promoter (a main downstream target of BMP signaling) was linked to luciferase (BRE-Luc) was used to identify compounds that increase BMPR2 signaling. Thus, activation of the BMP pathway was measured by luminescence. A high throughput screen of a library containing greater than 3,600 compounds was used.

[4] = all three patients, first 3-6 months
[5] = patient #1, after 3 months of treatment
[6] = patient #1, baseline, 3 and 6 months
[7] = patient #2, 12 months follow-up
[8] = patient #2, baseline, 3 and 6 months
[9] = patient #2, within 3 months of treatment

SMILES: C=CC[C@@H]1/C=C(\C)C[C@H](C)C[C@H](OC)[C@H]2O[C@@](O)(C(=O)C(=O)N3CCCC[C@H]3C(=O)O[C@H](/C(C)=C/[C@@H]3CC[C@@H](O)[C@H](OC)C3)[C@H](C)[C@@H](O)CC1=O)[C@H](C)C[C@@H]2OC [Tacrolimus, tacrolimus]
- BMPR2 signaling (biomarker data) ([1]; PAH patients): increase in BMPR2 signaling
- drug-related serious adverse events ([1]; all tested doses): no drug-related serious adverse events
- incidences of hypertension or cardiovascular events ([1]; all tested doses): no incidences of hypertension or cardiovascular events
- tolerability ([1]; all tested doses (goal blood level <2, 2-3, 3-5 ng/ml)): well tolerated
- REVEAL risk score ([2]; all 3 patients): improved
- hospital admission for worsening of heart failure ([2]; all three patients, during treatment): None of the patients was admitted
- 6 MWD [2, 4]: increase
- NT-pro BNP [2, 4]: decrease
- tolerability ([2]; human, in vivo): tolerated low-dose tacrolimus very well
- infections ([2]; human, in vivo, iv): did not report an increase of infections
- symptoms and exercise capacity ([2]; patient #1 (IPAH), trough goal 1.5-2.5 ng/mL, on epoprostenol, sildenafil): substantial improvement
- PAH associated hospitalizations ([2]; patient #1, 12 months after initiation (3 in the 12 months prior)): free of any PAH associated hospitalizations
- NT-proBNP [2, 5]: 678 pg/mL
- NYHA class symptoms [2, 5]: NYHA Class I
- improvement in 6 MWD [2, 5]: approximately 100 meters
- lowering of NT-proBNP [2, 5]: > 50%
- RV ejection fraction (RVEF), cMRI [2, 6]: stable
- RV end-diastolic volume index (RVEDVi), cMRI [2, 6]: stable
- RV stroke volume index (RVSVi), cMRI [2, 6]: increased
- cardiac index (CI), cMRI [2, 6]: increased
- REVEAL risk score ([2]; patient #1, on treatment (11 at transplant listing)): 3
- lung transplant list status ([2]; patient #1, within 2 months): placed on a status 7 (hold) for transplantation
- symptoms and exercise capacity ([2]; patient #2 (systemic sclerosis associated PAH), on treprostinil, sildenafil, dopamine): some improvement
- PAH related hospitalizations ([2]; patient #2, 12 months after initiation (4 in the 15 months prior)): free from any PAH related hospitalizations
- CO [2, 7]: 3.4 L/min
- NT-pro BNP [2, 7]: 1,895 pg/mL
- NT-pro BNP reduction compared to baseline [2, 7]: 30%
- NYHA symptoms [2, 7]: stable NYHA III symptoms
- PAWP [2, 7]: 10 mmHg
- PVR [2, 7]: 14.1 WU
- SVO2 [2, 7]: 59%
- increase in 6 MWD [2, 7]: 94 meter
- mPAP [2, 7]: 58 mmHg
- mRAP [2, 7]: 7 mmHg
- CI, cMRI [2, 8]: improvement
- RVEDVi, cMRI [2, 8]: stable
- RVEF, cMRI [2, 8]: substantial improvement
- RVSVi, cMRI [2, 8]: improvement
- REVEAL risk score ([2]; patient #2, on treatment (from 12)): 11
- NT-pro BNP ([2]; patient #2, within 1 month (from 2,669)): 1,895 pg/mL
- 6 MWD improved by [2, 9]: 18 meters
- NT-pro BNP [2, 9]: 1,580 pg/mL
- NYHA symptoms [2, 9]: stable NYHA III symptoms
- symptoms ([2]; patient #3 (drugs and toxins associated PAH), over a 5-months period, on treprostinil, sildenafil): symptomatic improvement
- BMPR2 signaling (activation of the BMP pathway measured by luminescence) [3]: increased BMPR2 signaling
